Reference: patent US20240325554A1, “METHODS FOR TREATING CANCER” (Bicycle Tx Limited, priority 2021, published 2024)
“Also recorded” adds a separate entry of the source. Numbered stars: 1 amine (or outer) side, 2 acyl side, 3 side chain; on linkers, the order of the positions; unused ones are H or OH. Bridge positions count the residues as written; N and C are the ends. Square brackets hold non-standard residues; d marks the D form. I, II: the chains in the order shown. X2 = O=C(CCOCCOCCOCCN(CCOCCOCCOCCn1cc(CCC(=O)[*:2])nn1)CCOCCOCCOCCn1cc(CCC(=O)[*:3])nn1)[*:1]; TATA = O=C(CC[*:1])N1CN(C(=O)CC[*:2])CN(C(=O)CC[*:3])C1; X1 = CC(C)[C@H](N[*:1])C(=O)C[C@@H](CC(N)=O)C(=O)[*:2]; X3 = O=C(CC[*:1])N1CN(C(=O)CC[*:3])CN(C(=O)C[*:2])C1; d1Nal = N[C@H](Cc1cccc2ccccc12)C(=O)O; Hyp = O=C(O)[C@@H]1C[C@@H](O)CN1; hArg = N=C(N)NCCCC[C@H](N)C(=O)O; tBuAla = CC(C)(C)C[C@H](N)C(=O)O; Nle = CCCC[C@H](N)C(=O)O

Key:
MC38 tumor tissue [1] = experiment: IHC analysis for CD8+ cells in MC38 tumor tissue, study with BCY12491; format: in vivo, huCD137-C57B/6J mice; conditions: Q3D for three doses, Day 6, vs vehicle or non-binder
Description: (§1) For the transcriptional and immunohistochemical (IHC) analyses, 6-8 week old female huCD137-C57B/6J mice (Biocytogen) mice were implanted subcutaneously with 1×10^6 MC38 cells. Mice were randomized into treatment groups when average tumor volumes reached around 240 mm^3 and were treated intravenously with vehicle (25 mM histidine, 10% sucrose, pH7), 15 mg/kg BCY12491, 15 mg/kg BCY13626 (non-binding control) or intraperitoneally with 2 mg/kg anti-CD137 antibody urelumab. Treatments were given Q3D for three doses, tumor growth was monitored by caliper measurements and tumor tissues were harvested 1 hour after the last dose on Day 6. Part of the tumor tissue was used for RNA isolation for transcriptional analysis and a part of the tumor tissue was used for formalin-fixed paraffin embedded (FFPE) sample preparation for IHC analysis. RNA was isolated from tumor tissues using RNAeasy kit (Qiagen) and transcriptional analysis was performed using nCounter Mouse PanCancer IO 360 panel (Nanostring) from 100 ng RNA/tumor. Data were analyzed using the nSolver Analysis Software with advanced analysis probe set ns_mm_io_360_v1.0 (Nanostring). CD8+ tumor infiltrating cells were stained in FFPE tissue sections using anti-mouse CD8 antibody (Abcam, #ab217344) and Ventana Discovery OmniMap anti Rabbit-HRP Kit (Ventana #760 4310).

MC38 tumor tissue [2] = experiment: transcriptional (Nanostring) analysis of MC38 tumors, profiling study with BCY12491; format: in vivo, huCD137-C57B/6J mice; conditions: Q3D for three doses, Day 6, vs vehicle, 15 mg/kg i.v. peptides, 2 mg/kg i.p. antibody
Description: as §1

MC38 tumor [3] = experiment: MC38 tumor model in mice (BCY13272); format: in vivo
MC38 tumor tissue [4] = experiment: transcriptional (Nanostring) profiling of MC38 tumors, study with BT7455; format: in vivo, huCD137-C57B/6J mice
Description: For the transcriptional profiling analyses of the effects of BT7455 in the immune tumor microenvironment, 6-8 week old female huCD137-C57B/6J mice (Biocytogen) mice were implanted subcutaneously with 1×10+E6 MC38 cells. Mice were randomized into treatment groups when average tumor volumes reached around 350 mm^3 to receive vehicle, BT7455, αCD137 antibody (urelumab analogue) or αPD-1 antibody. BT7455 was dosed intravenously at 8 mg/kg (in 25 mM histidine HCl, 10% sucrose, pH7; Vehicle) at 0 h and 24 h and urelumab analogue and αPD-1 antibody were dosed intraperitoneally at 2 mg/kg (urelumab analogue) or 10 mg/kg (αPD-1 antibody) in PBS at 0 h. Tumors from vehicle, BT7455, urelumab analogue and αPD-1 antibody-treated mice were harvested at 24 h, 48 h and 144 h after treatment initiation. RNA was isolated from tumor tissues using RNAeasy kit (Qiagen) and transcriptional analysis was performed using nCounter Mouse PanCancer IO 360 panel (Nanostring) from 100 ng RNA/tumor. Data were analyzed using the nSolver Analysis Software with advanced analysis probe set ns_mm_io_360 v1.0 (Nanostring).

CD137 [5] = biological target: T1, CD137 (Homo sapiens, UniProt Q07011); experiment: IL-2 and IFN-γ cytokine secretion; format: cell-based
CD137 [6] = biological target: T1, CD137; experiment: CD137 activation; format: cell-based
[7] = test system: MC38 #13 cells (MC38 cells engineered to overexpress Nectin-4); experiment: efficacy study BT7480 with anti-PD-1 and anti-Ctla-4, MC38 #13 tumor growth and survival; format: in vivo, C57BL/6J-huCD137 mice; conditions: i.p. BIW for 2 weeks, 1 mg/kg BT7480, 5 mg/kg antibodies, by day 33
Description: For tumor growth analysis, 6-8 week old female C57BL/6J-huCD137− mice (Biocytogen) were implanted subcutaneously with 1×10+e6 MC38 #13 cells (MC38 cells engineered to overexpress Nectin-4). Mice were randomized into treatment groups when average tumor volumes reached around 100 mm^3 and were treated intraperitoneally with vehicle (25 mM histidine, 10% sucrose, pH7), 1 mg/kg BT7480, 5 mg/kg anti-PD-1 (RMP 1-14), 5 mg/kg anti-Ctla-4 (9H10) or BT7480/anti-PD-1 and BT7480/anti-Ctla-4 combinations. Treatments were given twice weekly (BIW) for 2 weeks, and tumor growth was monitored by caliper measurements until day 33 after treatment initiation. Animals with >2000 mm^3 tumors were sacrificed as they had reached the Humane Endpoint.

[8] = test system: MC38 #13 (MC38 cells engineered to express Nectin-4) tumor tissue; experiment: transcriptional (Nanostring) analysis of MC38 #13 tumors, study with BT7480; format: in vivo, huCD137-C57B/6J mice; conditions: 5 mg/kg i.v. 0 h, 24 h
Description: For the transcriptional and immunohistochemical (IHC) analyses, 6-8 week old female huCD137-C57B/6J mice (Biocytogen) mice were implanted subcutaneously with 1×10^6 MC38 #13 (MC38 cells engineered to express Nectin-4) cells. Mice were randomized into treatment groups when average tumor volumes reached around 255 mm^3 to receive vehicle, BT7480 (BCY00011863), non-binder BCY control BCY00012797 (BCY12797) or αCD137 antibody (urelumab analogue). BT7480 and its non-binding control were dosed intravenously at 5 mg/kg (in 25 mM histidine HCl, 10% sucrose, pH7; Vehicle) at 0 h and 24 h and urelumab analogue was dosed intraperitoneally at 2 mg/kg in PBS BIW (0 h, 72 h) dose and schedule. Tumors from BT7480-treated mice were harvested at 24 h (after the 0 h dose), 48 h (24 h after the last of 0 h and 24 h dose), 96 h (72 h after the last of 0 h and 24 h dose) and 144 h (120 h after the last of 0 h and 24 h dose). Tumors from αCD137-treated mice were harvested at 144 h after treatment initiation. Tumors from vehicle treated mice were harvested 24 h after the 0 h dose and at 144 h (120 h after the last of 0 h and 24 h dose). RNA was isolated from tumor tissues using RNAeasy kit (Qiagen) and transcriptional analysis was performed using nCounter Mouse PanCancer IO 360 panel (Nanostring) from 100 ng RNA/tumor. Data were analyzed using the nSolver Analysis Software with advanced analysis probe set ns_mm_io_360_v1.0 (Nanostring).

MC38 tumor [9] = experiment: efficacy study BCY12491 and Pembrolizumab combination, MC38 tumor growth; format: in vivo, huCD137/huPD-1-C57B/6J mice
Description: For tumor growth analysis, 6-8 week old female huCD137/huPD-1-C57B/6J mice (Biocytogen) mice were implanted subcutaneously with 1×10^6 MC38 cells. Mice were randomized into treatment groups when average tumor volumes reached around 92 mm^3 and were treated intravenously with vehicle (25 mM histidine, 10% sucrose, pH7), 5 mg/kg BCY12491 (0, 24 h) or intraperitoneally with 3 mg/kg anti-PD-1 antibody Pembrolizumab or a combination of BCY12491 and Pembrolizumab. Combination treatments were given with three different dosing schedules: BCY12491 and Pembrolizumab treatment initiating at the same time on day 0, BCY12491 treatment initiating on […] and Pembrolizumab treatment initiating on day 5, or Pembrolizumab treatment initiating of day 0 and BCY12491 treatment initiating on day 5. Treatments were given weekly for four doses and tumor growth was monitored by caliper measurements.

T1 sequence (Q07011 24-255): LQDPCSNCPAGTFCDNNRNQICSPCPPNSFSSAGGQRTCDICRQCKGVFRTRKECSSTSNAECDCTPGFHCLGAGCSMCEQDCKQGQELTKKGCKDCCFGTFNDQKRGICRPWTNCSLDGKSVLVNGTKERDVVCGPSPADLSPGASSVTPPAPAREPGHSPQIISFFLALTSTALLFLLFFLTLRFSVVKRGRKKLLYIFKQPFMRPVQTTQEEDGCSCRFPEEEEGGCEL

anti-CD137 antibody: anti-CD137 antibody urelumab
infiltration of CD8+ cells in tumors (IHC) (MC38 tumor tissue [1]): Some increase of CD8+ cell infiltration | T cell score in tumor tissue (MC38 tumor tissue [2]): increased significantly | cytotoxic cell score in tumor tissue (MC38 tumor tissue [2]): increased significantly

I: A[hArg]DC[Hyp]L[X1]PLCLEP[d1Nal]WTC-NH2 / II: Ac-C[tBuAla]PE[dK]PYCFADPY[Nle]CA-NH2 / III: Ac-C[tBuAla]PE[dK]PYCFADPY[Nle]CA-NH2 (linker I:4-I:10-I:17, II:1-II:8-II:15 via TATA; linker I:N-II:5-III:5 via X2; linker III:1-III:8-III:15 via X3) [BT7455]
antitumor effect (MC38 tumor [3]): significant antitumor effect | mRNAs for immune checkpoints (Ctla4, Pdcd1, Cd274, Lag3, Havcr2, Pdcd1lg2, Tigit) (MC38 tumor tissue [4]; 8 mg/kg i.v. 0 h, 24 h): increase in several immune checkpoint mRNAs; also recorded: significant increase | mRNA for T cell chemotactic chemokines/cytokines such as Ccl1, Ccl17 and Ccl24 (MC38 tumor tissue [4]; 8 mg/kg i.v., 24-48 hour timepoint): significant early (24-48 hour timepoint) increase | cytotoxic cell score in tumor tissue (MC38 tumor tissue [4]; 8 mg/kg i.v., vs vehicle or anti-PD-1 or anti-CD137 treated mice): significant increase | modulation of gene sets (signature scores) (MC38 tumor tissue [4]; 48 h after treatment initiation, 8 mg/kg BT7455, 10 mg/kg anti-PD-1, 2 mg/kg urelumab analogue): significant early (48 hours) modulation of several gene sets

CCCC[C@@H]1NC(=O)[C@H](Cc2ccc(O)cc2)NC(=O)[C@@H]2CCCN2C(=O)[C@H](CC(=O)O)NC(=O)[C@H](C)NC(=O)[C@H](Cc2ccccc2)NC(=O)[C@@H]2CSCCC(=O)N3CN(CN(C3)C(=O)CCSC[C@@H](C(=O)N[C@@H](C)C(N)=O)NC1=O)C(=O)CCSC[C@H](NC(C)=O)C(=O)N[C@@H](CC(C)(C)C)C(=O)N1CCC[C@H]1C(=O)N[C@@H](CCC(=O)O)C(=O)N[C@H](CCCCNC(=O)CCc1cn(CCOCCOCCOCCN(CCOCCOCCOCCC(=O)N[C@H]3CSCCC(=O)N4CN5CN(C4)C(=O)CCSC[C@H](NC(=O)[C@@H](CC(=O)O)NC(=O)[C@H](Cc4cccc6ccccc46)NC(=O)[C@@H]4CCCN4C3=O)C(=O)N[C@@H](CCSC)C(=O)N[C@@H](CCCCNC(=N)N)C(=O)N[C@@H](CC(=O)O)C(=O)N[C@@H](Cc3c[nH]c4ccccc34)C(=O)N[C@@H](CO)C(=O)N[C@@H]([C@@H](C)O)C(=O)N3CCC[C@H]3C(=O)N3C[C@H](O)C[C@H]3C(=O)N[C@@H](Cc3c[nH]c4ccccc34)C(=O)N[C@H](C(N)=O)CSCCC5=O)CCOCCOCCOCCn3cc(CCC(=O)NCCCC[C@H]4NC(=O)[C@H](CCC(=O)O)NC(=O)[C@@H]5CCCN5C(=O)[C@H](CC(C)(C)C)NC(=O)[C@@H](NC(C)=O)CSCCC(=O)N5CN6CN(C5)C(=O)CCSC[C@H](NC(=O)[C@H](Cc5ccc(O)cc5)NC(=O)[C@@H]5CCCN5C4=O)C(=O)N[C@@H](Cc4ccccc4)C(=O)N[C@@H](C)C(=O)N[C@@H](CC(=O)O)C(=O)N4CCC[C@H]4C(=O)N[C@@H](Cc4ccc(O)cc4)C(=O)N[C@@H](CCCC)C(=O)N[C@H](C(=O)N[C@@H](C)C(N)=O)CSCCC6=O)nn3)nn1)C(=O)N1CCC[C@H]1C(=O)N[C@@H](Cc1ccc(O)cc1)C(=O)N2 [BT7480]
IL-2 and IFN-γ cytokine secretion (CD137 [5]): robust IL-2 and IFN-γ cytokine secretion | CD137 activation (CD137 [6]): strong CD137 activation | rate of complete responses (CRs) [7]: 0/8 | mRNA for T cell chemotactic chemokines/cytokines such as Ccl1, Ccl17 and Ccl24 [8]: significant early (24 hour timepoint) increase | mRNAs for immune checkpoints (Ctla4, Pdcd1, Cd274, Lag3, Havcr2, Pdcd1lg2, Tigit) ([8]; 5 mg/kg): increase in several immune checkpoint mRNAs; also recorded: trend to increase or significant increase | cytotoxic cell score in tumor tissue ([8]; 144 h vs vehicle at 144 h): significantly increased | Macrophage Cell Score in tumor tissue ([8]; by 48 h vs 24 h vehicle readout): significant increase

Pembrolizumab: anti-PD-1 antibody Pembrolizumab
anti-tumor activity compared to vehicle control (MC38 tumor [9]; 5 mg/kg BCY12491 QW (0, 24 h), 3 mg/kg Pembrolizumab QW, combination both from day 0, D18, p<0.0001): significantly affected the tumor growth; also recorded: significant anti-tumor activity | complete responses (MC38 tumor [9]; monotherapy treatment cohorts, 5 mg/kg BCY12491 (0, 24 h) or 3 mg/kg Pembrolizumab weekly): 3/10
